Reference: ChEMBL document CHEMBL5365532, “Discovery of Triazinone Derivatives as Novel, Specific, and Direct NLRP3 Inflammasome Inhibitors for the Treatment of DSS-Induced Ulcerative Colitis” (J Med Chem, 2023)
The source made the active and inactive calls. The calls are words filed in the database; no cut-off is given here.

Test system: Mus musculus
Test: Antiinflammatory activity against DSS-induced ulcerative colitis C57BL/6 mouse model assessed as decrease in colon length shortening at 30 mg/kg, ip fed with DSS for 6 days followed by administration with compound for 5 days and measured on day 11
Assay type: functional, organism-based
Conditions: time 5.0 day

| Compound | Activity |
| --- | --- |
| CC(C)c1nn(CC(=O)NC2CCOCC2)c(=O)c2cc3sc(Cl)cc3n12 | Active |

Test system: THP-1
Test: Effect on pro-IL-1beta protein expression in PMA-differentiated human THP-1 cells at 0.5 uM pretreated with compound for 40 mins followed by LPS challenge for 3 hrs by western blot analysis
Assay type: functional, cell-based
Conditions: time 220.0 min

| Compound | Activity |
| --- | --- |
| CC(C)(O)c1coc(S(=O)(=O)NC(=O)Nc2c3c(cc4c2CCC4)CCC3)c1 | inactive |

Test system: THP-1
Test: Effect on NLRP3 protein expression in PMA-differentiated human THP-1 cells at 0.5 uM pretreated with compound for 40 mins followed by LPS challenge for 3 hrs by western blot analysis
Assay type: functional, cell-based
Conditions: time 220.0 min

| Compound | Activity |
| --- | --- |
| CC(C)(O)c1coc(S(=O)(=O)NC(=O)Nc2c3c(cc4c2CCC4)CCC3)c1 | inactive |

Test system: Mus musculus
Test: Antiinflammatory activity against DSS-induced ulcerative colitis C57BL/6 mouse model assessed as decrease in disease activity index at 30 mg/kg, ip fed with DSS for 6 days followed by administration with compound for 5 days
Assay type: functional, organism-based
Conditions: time 5.0 day

| Compound | Activity |
| --- | --- |
| CC(C)c1nn(CC(=O)NC2CCOCC2)c(=O)c2cc3sc(Cl)cc3n12 | Active |

Biological target: NACHT, LRR and PYD domains-containing protein 3 (Homo sapiens, UniProt Q96P20)
Test: Inhibition of NLRP3 inflammasome in PMA-differentiated human THP-1 cells assessed as inhibition of LPS/nigericin-induced IL-1 beta secretion pretreated with LPS for 3 hrs followed by incubation with compound for 40 mins and later stimulated with nigericin for 35 mins by ELISA
Assay type: cell-based
Conditions: not given

Sequence of NACHT, LRR and PYD domains-containing protein 3 (Q96P20 whole entry, the tested form may be a part): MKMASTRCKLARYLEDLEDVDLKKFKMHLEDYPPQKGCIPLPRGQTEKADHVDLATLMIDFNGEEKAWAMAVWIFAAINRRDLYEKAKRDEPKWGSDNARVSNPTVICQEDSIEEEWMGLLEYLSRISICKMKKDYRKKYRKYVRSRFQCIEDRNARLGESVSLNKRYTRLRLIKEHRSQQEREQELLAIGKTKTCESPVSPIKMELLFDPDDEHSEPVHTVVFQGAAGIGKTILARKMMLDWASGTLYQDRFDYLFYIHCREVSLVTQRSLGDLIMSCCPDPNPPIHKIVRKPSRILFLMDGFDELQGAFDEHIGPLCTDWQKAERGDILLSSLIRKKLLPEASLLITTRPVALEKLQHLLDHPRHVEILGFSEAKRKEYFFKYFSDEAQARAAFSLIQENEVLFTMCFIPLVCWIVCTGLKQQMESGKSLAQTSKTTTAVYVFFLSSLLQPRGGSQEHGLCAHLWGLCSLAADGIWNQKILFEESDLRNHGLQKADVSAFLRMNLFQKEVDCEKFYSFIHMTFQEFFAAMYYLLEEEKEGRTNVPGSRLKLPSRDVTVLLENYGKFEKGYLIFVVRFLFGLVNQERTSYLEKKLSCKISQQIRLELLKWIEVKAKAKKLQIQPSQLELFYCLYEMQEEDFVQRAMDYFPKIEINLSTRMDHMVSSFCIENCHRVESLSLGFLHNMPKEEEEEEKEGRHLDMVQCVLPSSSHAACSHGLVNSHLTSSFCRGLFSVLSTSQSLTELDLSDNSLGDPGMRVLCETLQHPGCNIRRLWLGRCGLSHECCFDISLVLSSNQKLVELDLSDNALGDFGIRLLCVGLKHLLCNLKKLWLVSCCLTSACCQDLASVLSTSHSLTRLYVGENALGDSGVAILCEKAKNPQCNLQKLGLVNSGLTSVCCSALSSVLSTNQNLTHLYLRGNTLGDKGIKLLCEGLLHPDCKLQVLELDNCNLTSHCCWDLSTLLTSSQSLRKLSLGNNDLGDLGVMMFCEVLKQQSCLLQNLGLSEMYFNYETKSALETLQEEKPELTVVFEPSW

| Compound | IC50 [µM] |
| --- | --- |
| CC(C)c1nn(CC(=O)NC2CCOCC2)c(=O)c2cc3ccccc3n12 | > 10 |
| O=C(CNC(=O)c1cc2sccc2[nH]1)NC1CCOCC1 | > 10 |
| CC(C)c1nn(Cc2nnc(-c3cc(C(F)(F)F)cnc3Cl)o2)c(=O)c2cc3sc(Cl)cc3n12 | 1.77 |
| CC(C)c1nn(CC(=O)NC2CCOCC2)c(=O)c2cc3cc(Cl)ccc3n12 | > 10 |
| CC(C)c1nn(CC(=O)NC2CCOCC2)c(=O)c2cc(Nc3ccccc3)cn12 | > 10 |
| O=C(CN1CCn2c(cc3sccc32)C1=O)NC1CCOCC1 | > 10 |
| CC(C)c1nn(Cc2nnc(C3CCOCC3)o2)c(=O)c2cc3sccc3n12 | > 10 |
| Cc1cccc(-c2nnc(Cn3nc(C(C)C)n4c(cc5sc(Cl)cc54)c3=O)o2)c1 | > 10 |
| CC(C)c1nn(Cc2nnc(-c3cccnc3)o2)c(=O)c2cc3sc(Cl)cc3n12 | 1.89 |
| CC(C)c1nn(Cc2nnc(C3CCOCC3)o2)c(=O)c2cc3sc(Cl)cc3n12 | 2.41 |
| CC(C)c1nn(Cc2nnc(-c3cnccn3)o2)c(=O)c2cc3sc(Cl)cc3n12 | 2.24 |
| CC(C)c1nn(Cc2nnc(-c3ccncn3)o2)c(=O)c2cc3sc(Cl)cc3n12 | 1.24 |

Results, then the molecule that gave them:

| IC50 [µM] | Compound |
| --- | --- |
| > 10 | CC(C)c1nn([C@@H](C)c2nnc(-c3ccc(C(F)(F)F)nc3Cl)o2)c(=O)c2cc3sc(Cl)cc3n12 |
| > 10 | COc1cccc(-c2nnc(Cn3nc(C(C)C)n4c(cc5sc(Cl)cc54)c3=O)o2)c1 |
| > 10 | CC(C)c1nn(CC(=O)NC2CCOCC2)c(=O)c2cccn12 |
| > 10 | CC(C)c1nn([C@H](C)c2nnc(-c3ccc(C(F)(F)F)nc3Cl)o2)c(=O)c2cc3sc(Cl)cc3n12 |
| > 10 | CC(C)c1nn(CC(=O)NC2CCOCC2)c(=O)c2ccc(-c3ccsc3)n12 |
| 0.38 | CC(C)c1nn(Cc2nnc(-c3cccc(C#N)c3)o2)c(=O)c2cc3sc(Cl)cc3n12 |
| > 10 | CC(C)c1nn(CC(=O)NC2CCOCC2)c(=O)c2ccc(-c3ccc(Cl)s3)n12 |
| 1.9 | CC(C)c1nn(Cc2nnc(C3CCCCC3)o2)c(=O)c2cc3sc(Cl)cc3n12 |
| > 10 | CC(C)c1nn(CC(=O)NC2CCOCC2)c(=O)c2cc(NC3COC3)cn12 |
| > 10 | CC(C)c1nn(Cc2nnc(-c3cccnc3)[nH]2)c(=O)c2cc3sc(Cl)cc3n12 |

Test system: not listed separately
Test: Metabolic stability in human liver microsomes
Assay type: ADME, Microsome
Conditions: not given

| Compound | half-life [min] |
| --- | --- |
| Cc1ccc(-c2nnc(Cn3nc(C(C)C)n4c(cc5sc(Cl)cc54)c3=O)o2)c(Cl)n1 | 15.2 |
| CC(C)c1nn(CC(=O)NC2CCOCC2)c(=O)c2cc3sc(Cl)cc3n12 | 18.7 |
| CC(C)c1nn(Cc2nnc(-c3cc(F)cnc3Cl)o2)c(=O)c2cc3sc(Cl)cc3n12 | 7.66 |

The next lines start with the values.

| half-life [min] | Compound |
| --- | --- |
| 25.1 | [2H]C([2H])(c1nnc(-c2ccc(C(F)(F)F)nc2Cl)o1)n1nc(C(C)C)n2c(cc3sc(Cl)cc32)c1=O |
| 59.2 | CC(C)c1nn([C@H](C)c2nnc(-c3ccc(C(F)(F)F)nc3Cl)o2)c(=O)c2cc3sc(Cl)cc3n12 |
| 8.86 | CC(C)c1nn(Cc2nnc(-c3ccc(F)nc3F)o2)c(=O)c2cc3sc(Cl)cc3n12 |
